Source: patent US20230086702A1, “SUBSTITUTED 2-AMINO-PYRAZOLYL-[1,2,4]TRIAZOLO[1,5A]PYRIDINE DERIVATIVES AND USE THEREOF” (The Johns Hopkins University, priority 2019, published 2023)

How the values were obtained:
[1] = target: T1, DLK (Homo sapiens, UniProt Q12852); assay: DLK biochemical assay (TR-FRET, MKK7 phosphorylation); settings: DLK catalytic domain, MKK7 substrate, 60 μM ATP
T1 construct: 10 nM DLK, catalytic domain, Carna Biosiences; purchased Carna Biosciences ('Carna Biosiences' [sic])
T1 sequence (Q12852 125-366 limits assumed): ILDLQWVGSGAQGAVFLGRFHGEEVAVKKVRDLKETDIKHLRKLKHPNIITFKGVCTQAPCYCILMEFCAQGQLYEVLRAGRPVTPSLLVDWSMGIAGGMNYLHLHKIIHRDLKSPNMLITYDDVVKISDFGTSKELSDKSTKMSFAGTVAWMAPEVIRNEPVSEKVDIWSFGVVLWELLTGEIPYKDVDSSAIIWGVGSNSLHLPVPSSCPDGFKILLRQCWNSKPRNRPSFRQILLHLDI
Description: (§1) DLK assay is a biochemical assay format designed to screen for inhibitors of DLK. Enzymatic activity of DLK is measured by monitoring phosphorylation of the physiological substrate MKK7 (MAP2K7, Dual specificity mitogen-activated protein kinase kinase 7). Phosphorylation is detected by a TR-FRET system whereby His-tagged MKK7 is labeled by a XL665-labeled anti-His antibody (FRET acceptor, emission 665 nm). DLK phosphorylates MKK7 at T275/S277, which is detected by an Eu-labeled anti-phospho-MKK7 (T275/S277) antibody (FRET donor, excitation 340 nm). Phosphorylation of MKK7 results in an increased TR-FRET signal (Ratio XL665-channel/Eu-channel) and inhibition of enzymatic activity of DLK decreases the TR-FRET signal.
All indicated concentrations are final concentrations.
(§2) Detection buffer: 25 mM Tris/HCl pH 7.5, 100 mM EDTA, 100 mM NaCl, 200 mM KF, 0.01% Tween 20, 1:500 Smart Block.

[2] = target: T2, LZK (Homo sapiens, UniProt O43283); assay: LZK biochemical assay (TR-FRET, MKK7 phosphorylation); settings: LZK catalytic domain, MKK7 substrate, 15 μM ATP
T2 construct: 10 nM LZK, catalytic domain, Carna Biosiences in assay buffer; purchased Carna Biosciences ('Carna Biosiences' [sic])
T2 sequence (O43283 168-409 limits assumed): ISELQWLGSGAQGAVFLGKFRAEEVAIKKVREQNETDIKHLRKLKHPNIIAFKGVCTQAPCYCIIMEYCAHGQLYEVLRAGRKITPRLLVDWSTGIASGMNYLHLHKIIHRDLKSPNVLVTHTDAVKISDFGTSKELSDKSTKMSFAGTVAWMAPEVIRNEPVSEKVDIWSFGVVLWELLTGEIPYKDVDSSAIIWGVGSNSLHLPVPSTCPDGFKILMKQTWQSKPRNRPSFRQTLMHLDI
Description: as §1, with “LZK” for “DLK”, “LZK.” for “DLK.”, “T275/S277” for “T275/S277,”
All indicated concentrations final concentrations.
as §2

Row | Structure (SMILES) | IC50 [1] [µM] | IC50 [2] [µM]
1 | CCC(c1ccc(F)cn1)n1cc(-c2cc(C(=O)N[C@@H](C)CC)c3nc(N)nn3c2)cn1 (single isomer, unassigned) [Example I-57] | 0.059 | 0.061
2 | CC[C@H](C)NC(=O)c1cc(-c2cnn(C3CCOc4ccccc43)c2)cc2nc(N)nn12 (single isomer, unassigned) [Example I-18] | 0.047 | 0.006
3 | CC[C@H](C)NC(=O)c1cc(-c2cnn(C(CC#N)C(F)(F)F)c2)cc2nc(N)nn12 (stereo partly drawn) [Example I-2] | 0.036 | 0.074
4 | CC[C@H](C)NC(=O)c1cc(-c2cnn(C(CC(F)(F)F)c3ccccc3)c2)cn2nc(N)nc12 (single isomer, unassigned) [Example I-39] | 0.024 | 0.23
5 | CC(CF)NC(=O)c1cc(-c2cnn(C3CCOc4ccccc43)c2)cn2nc(N)nc12 (single isomer, unassigned) [Example I-146, 2-Amino-6-[1-(3,4-dihydro-2H-chromen-4-yl)-1H-pyrazol-4-yl]-N-(1-fluoropropan-2-yl)[1,2,4]triazolo[1,5-a]pyridine-8-carboxamide] | 0.13 | 0.085
6 | CC[C@H](C)NC(=O)c1cc(-c2cnn(C3CCc4ccccc43)c2)cn2nc(N)nc12 (mixture of isomers) [Example I-13, 2-Amino-N-[(2S)-butan-2-yl]-6-[1-(2,3-dihydro-1H-inden-1-yl)-1H-pyrazol-4-yl][1,2,4]triazolo[1,5-a]pyridine-8-carboxamide] | 0.068 | 0.0077
7 | CC[C@H](C)NC(=O)c1cc(-c2cnn(C(c3ccccc3)C3CC(F)(F)C3)c2)cn2nc(N)nc12 (mixture of isomers) [Example I-31, 2-Amino-N-[(2S)-butan-2-yl]-6-{1-[(3,3-difluorocyclobutyl)(phenyl)methyl]-1H-pyrazol-4-yl}[1,2,4]triazolo[1,5-a]pyridine-8-carboxamide] | 0.0038 | 0.15
8 | CC[C@H](C)NC(=O)c1cc(-c2cnn(Cc3cccc4cn[nH]c34)c2)cn2nc(N)nc12 (single isomer, unassigned) [Example I-23] | 0.0027 | 0.056
9 | CCC(c1ccc(C(F)(F)F)nc1)n1cc(-c2cc(C(=O)N[C@H]3CCOC3)n3nc(N)nc3c2)cn1 (single isomer, unassigned) [Example I-179] | 0.0018 | 0.0079
10 | CC[C@H](C)NC(=O)c1cc(-c2cnn(C(c3ccc(OCC(F)(F)F)nc3)C(C)C)c2)cc2nc(N)nn12 (single isomer, unassigned) [Example I-118] | 0.0086 | 0.029
11 | CC[C@H](C)NC(=O)c1cc(-c2cnn(C3CCCc4cccnc43)c2)cc2nc(N)nn12 (mixture of isomers) [Example I-22, 2-Amino-N-[(2S)-butan-2-yl]-7-[1-(5,6,7,8-tetrahydroquinolin-8-yl)-1H-pyrazol-4-yl][1,2,4]triazolo[1,5-a]pyridine-5-carboxamide] | 0.027 | 0.013
12 | CCC(c1ccc(OCC(F)(F)F)nc1)n1cc(-c2cc(C(=O)N[C@H]3CCOC3)n3nc(N)nc3c2)cn1 (mixture of isomers) [Example I-186] | 0.0062 | 0.016
13 | CCC(c1ccc(C(F)F)nc1)n1cc(-c2cc(C(=O)N[C@@H](C)CC)n3nc(N)nc3c2)cn1 (single isomer, unassigned) [Example I-93] | 0.0065 | 0.0063
14 | CC[C@H](C)NC(=O)c1cc(-c2cnn(C(COC)c3ccccc3)c2)cn2nc(N)nc12 (mixture of isomers) [Example I-40, 2-Amino-N-[(2S)-butan-2-yl]-6-[1-(2-methoxy-1-phenylethyl)-1H-pyrazol-4-yl][1,2,4]triazolo[1,5-a]pyridine-8-carboxamide] | 0.0045 | 0.067
15 | CCC(c1ccc(OC(F)(F)F)nc1)n1cc(-c2cc(C(=O)NC(C)(C)CO)c3nc(N)nn3c2)cn1 (racemic) [Example I-169, 2-Amino-N-(1-hydroxy-2-methylpropan-2-yl)-6-(1-{1-[6-(trifluoromethoxy)pyridin-3-yl]propyl}-1H-pyrazol-4-yl)[1,2,4]triazolo[1,5-a]pyridine-8-carboxamide] | 0.026 | 0.071
16 | CC[C@H](C)NC(=O)c1cc(-c2cnn(C(c3cncc(Cl)c3)C(C)C)c2)cn2nc(N)nc12 (single isomer, unassigned) [Example I-62] | 0.0088 | 0.074
17 | CC(C)C(c1ccc(C(F)(F)F)nc1)n1cc(-c2cc(C(=O)N[C@H]3CCOC3)n3nc(N)nc3c2)cn1 (single isomer, unassigned) [Example I-181] | 0.0021 | 0.014

Now from value to compound:

Row | IC50 [1] [µM] | IC50 [2] [µM] | Structure (SMILES)
18 | 0.013 | 0.014 | CC[C@H](C)NC(=O)c1cc(-c2cnn(C(c3ccc(C(F)(F)F)nc3)C(C)C)c2)cc2nc(N)nn12 (single isomer, unassigned) [Example I-105]
19 | 0.41 | 0.99 | CC[C@H](C)NC(=O)c1cc(-c2cnn(C(c3ccccc3)C(C)(C)C)c2)cn2nc(N)nc12 (single isomer, unassigned) [Example I-35]
20 | 0.014 | 0.017 | CC[C@H](C)NC(=O)c1cc(-c2cnn(C(c3ccc(C(F)F)nc3)C(C)C)c2)cc2nc(N)nn12 (single isomer, unassigned) [Example I-96]
21 | 0.003 | 0.034 | CC[C@H](C)NC(=O)c1cc(-c2cnn(C(c3ccc(OCC(F)(F)F)nc3)C(C)C)c2)cn2nc(N)nc12 (single isomer, unassigned) [Example I-90]
22 | 0.013 | 0.023 | C[C@@H](CO)NC(=O)c1cc(-c2cnn(C(c3ccc(C(F)(F)F)nc3)C3CCOCC3)c2)cn2nc(N)nc12 (single isomer, unassigned) [Example I-156, 2-Amino-N-[(25)-1-hydroxypropan-2-yl]-6-(1-{tetrahydro-2H-pyran-4-yl[6-(trifluoromethyl)pyridin-3-yl]methyl}-1H-pyrazol-4-yl)[1,2,4]triazolo[1,5-a]pyridine-8-carboxamide]
23 | 0.11 | 0.33 | CC[C@H](NC(=O)c1cc(-c2cnn(Cc3ccccc3)c2)cn2nc(N)nc12)C(F)(F)F (single isomer, unassigned) [Example I-133]
24 | 0.0006 | 0.0033 | CC[C@H](C)NC(=O)c1cc(-c2cnn(C(c3cncc(Cl)c3)C(C)C)c2)cn2nc(N)nc12 (mixture of isomers) [Example I-61, 2-Amino-N-[(2S)-butan-2-yl]-6-{1-[1-(5-chloropyridin-3-yl)-2-methylpropyl]-1H-pyrazol-4-yl}[1,2,4]triazolo[1,5-a]pyridine-8-carboxamide]
25 | 0.064 | 0.19 | CCC(c1ccc(C(F)(F)F)nc1)n1cc(-c2cc(C(=O)NC(C)(C)CO)c3nc(N)nn3c2)cn1 (single isomer, unassigned) [Example I-165, 2-Amino-N-(1-hydroxy-2-methylpropan-2-yl)-6-(1-{1-[6-(trifluoromethyl)pyridin-3-yl]propyl}-1H-pyrazol-4-yl)[1,2,4]triazolo[1,5-a]pyridine-8-carboxamide]
26 | 0.033 | 0.16 | CC[C@H](C)NC(=O)c1cc(-c2cnn(C(c3ccc(F)cc3)C(C)C)c2)cn2nc(N)nc12 (single isomer, unassigned) [Example I-44]
27 | 0.0011 | 0.0056 | CC[C@H](C)NC(=O)c1cc(-c2cnn(C(c3ccc(C(F)F)nc3)C(C)C)c2)cn2nc(N)nc12 (mixture of isomers) [Example I-67, 2-Amino-N-[(2S)-butan-2-yl]-6-(1-{1-[6-(difluoromethyl)pyridin-3-yl]-2-methylpropyl}-1H-pyrazol-4-yl)[1,2,4]triazolo[1,5-a]pyridine-8-carboxamide]
